These results are taken from US20250179061A1 (SIRONAX LTD., priority 2022, published 2025).

The test concerns HT-29 cells. Briefly: HT-29 necroptosis cell viability assay (TNF-α/SMAC mimetic/zVAD-FMK, CellTiter-Glo). It is filed as cell-based. Particulars: Homo sapiens. The method, boiled down: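 HT-29 cells (~5,000/well, overnight) in FBS-free McCoy's 5A with TNF-α 10 ng/ml, SMAC mimetic 6 μM and zVAD-FMK 10 μM plus 10-point 1:3 compound titration, 20 h at 37°C. ATP measured by CellTiter-Glo luminescence; IC50 as geometric mean of duplicates.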
Background: In ATP-based viability assays light output follows the ATP content of the culture.

[1] abbreviates: HT-29, HT-29 necroptosis cell viability, IC50 class symbols, read-out: Activity.
Setting [2] is: HT-29, HT-29 necroptosis cell viability assay, class symbols for IC50, read-out: Activity.
[3] abbreviates: HT-29 cells stimulated with TNF-α (10 ng/ml), SMAC mimetic (6 μM) and zVAD-FMK (10 μM), 20 hours, CellTiter-Glo ATP luminescence, geometric mean IC50 from 10 points, read-out: Activity.
Setting [4] is: HT-29, HT-29 cells, necroptosis induced by TNF-α/SMAC mimetic/zVAD-FMK, CellTiter-Glo, read-out: Activity (IC50 class).

SMILES strings stand for the structures. Like-named read-outs stand apart in the source and are kept apart here. Some results are limits rather than exact numbers.

For `Cc1cnc(N2CC3(CCOCC3)C2)cc1Oc1ccc(-n2ncn(Cc3c(F)cccc3F)c2=O)cc1` [Example 263, 4-(2,6-difluorobenzyl)-2-(4-((5-methyl-2-(7-oxa-2-azaspiro[3.5]nonan-2-yl)pyridin-4-yl)oxy)phenyl)-2,4-dihydro-3H-1,2,4-triazol-3-one], the IC50 under setting [1] was less than 100 nM.

Take `C/C(=N\O)c1nc(C)c(Oc2ccc(-n3ncn(Cc4c(F)cccc4F)c3=O)cc2F)s1` [Example 164, 4-(2,6-difluorobenzyl)-2-(3-fluoro-4-((2-(1-(hydroxyimino)ethyl)-4-methylthiazol-5-yl)oxy)phenyl)-2,4-dihydro-3H-1,2,4-triazol-3-one]: the IC50 under setting [2] is less than 100 nM.

For `Cc1nc(CC#N)c(C)n1Cc1ccc(-n2ncn(Cc3c(F)cccc3F)c2=O)cc1F` [Example 142, 2-(1-(4-(4-(2,6-difluorobenzyl)-5-oxo-4,5-dihydro-1H-1,2,4-triazol-1-yl)-2-fluorobenzyl)-2,5-dimethyl-1H-imidazol-4-yl)acetonitrile], under setting [2], the IC50 was 1000 to 10000 nM.

As for `Cc1nc(C2(O)CC(OCc3ccccc3)C2)sc1Oc1ccc(-n2ncn(Cc3c(F)cccc3F)c2=O)cc1F` (centres unmarked) [Example 112, 2-(4-((2-(3-(benzyloxy)-1-hydroxycyclobutyl)-4-methylthiazol-5-yl)oxy)-3-fluorophenyl)-4-(2,6-difluorobenzyl)-2,4-dihydro-3H-1,2,4-triazol-3-one], under setting [3], the IC50 was 100 to 1000 nM.

Turning to `Cc1nc(Br)nn1Cc1ccc(-n2ncn(Cc3c(F)cccc3F)c2=O)cc1` [Example 663, 2-(4-((3-bromo-5-methyl-1H-1,2,4-triazol-1-yl)methyl)phenyl)-4-(2,6-difluorobenzyl)-2,4-dihydro-3H-1,2,4-triazol-3-one], the IC50 under setting [4] was 100 to 1000 nM.

In the case of `CCOC(=O)c1nc(C)nn1Cc1ccc(-n2ncn(Cc3c(F)cccc3F)c2=O)cc1F` [Example 201], under setting [2], the IC50 lay within 100 to 1000 nM.

For `COC1(C#N)CN(c2cc(Oc3ccc(-n4ncn(Cc5c(F)cccc5F)c4=O)cc3Cl)ccn2)C1` [Example 314, 1-(4-(2-chloro-4-(4-(2,6-difluorobenzyl)-5-oxo-4,5-dihydro-1H-1,2,4-triazol-1-yl)phenoxy)pyridin-2-yl)-3-methoxyazetidine-3-carbonitrile], the IC50 under setting [1] is less than 100 nM.

On to `Cc1nc(Br)sc1Oc1ccc(-n2ncn(Cc3c(F)cccc3F)c2=O)cc1F` [Example 1, 2-(4-((2-bromo-4-methylthiazol-5-yl)oxy)-3-fluorophenyl)-4-(2,6-difluorobenzyl)-2,4-dihydro-3H-1,2,4-triazol-3-one], for which the IC50 under setting [3] is less than 100 nM.

In the case of `COC(=O)c1nc(C)c(Oc2ncc(-n3ncn(Cc4c(F)cccc4F)c3=O)cc2F)s1` [Example 646, methyl 5-((5-(4-(2,6-difluorobenzyl)-5-oxo-4,5-dihydro-1H-1,2,4-triazol-1-yl)-3-fluoropyridin-2-yl)oxy)-4-methylthiazole-2-carboxylate], the IC50 under setting [4] is less than 100 nM.

Regarding `Cc1nc(C(=O)NC2COC2)sc1Oc1ccc(-n2ncn(Cc3ccccc3F)c2=O)cc1F` [Example 603, 5-(2-fluoro-4-(4-(2-fluorobenzyl)-5-oxo-4,5-dihydro-1H-1,2,4-triazol-1-yl)phenoxy)-4-methyl-N-(oxetan-3-yl)thiazole-2-carboxamide], under setting [2], the IC50 was less than 100 nM.

In the case of `Nc1ncc(Oc2ccc(-n3ncn(Cc4c(F)cccc4F)c3=O)cc2)s1` [Example 90, 2-(4-((2-aminothiazol-5-yl)oxy)phenyl)-4-(2,6-difluorobenzyl)-2,4-dihydro-3H-1,2,4-triazol-3-one], the IC50 under setting [3] was 100 to 1000 nM.

Take `Cc1nc(-c2ccnn2C)sc1Oc1ccc(-n2ncn(Cc3c(F)cccc3F)c2=O)cc1` [Example 544, 4-(2,6-difluorobenzyl)-2-(4-((4-methyl-2-(1-methyl-1H-pyrazol-5-yl)thiazol-5-yl)oxy)phenyl)-2,4-dihydro-3H-1,2,4-triazol-3-one]: the IC50 under setting [2] was less than 100 nM.

In the case of `O=c1n(Cc2c(F)cccc2F)cnn1-c1ccc(Oc2ccnc(N3CC(OCC4CC4)C3)c2)cc1` [Example 483, 2-(4-((2-(3-(cyclopropylmethoxy)azetidin-1-yl)pyridin-4-yl)oxy)phenyl)-4-(2,6-difluorobenzyl)-2,4-dihydro-3H-1,2,4-triazol-3-one], the IC50 under setting [2] lay within 100 to 1000 nM.

With `Cc1ncsc1Oc1ccc(-n2ncn(Cc3c(F)cccc3F)c2=O)cc1Cl` [Example 5, 2-(3-chloro-4-((4-methylthiazol-5-yl)oxy)phenyl)-4-(2,6-difluorobenzyl)-2,4-dihydro-3H-1,2,4-triazol-3-one], under setting [3], the IC50 was less than 100 nM.

As to `COC1(C#N)CN(c2cc(Oc3ccc(-n4ncn(Cc5c(F)cccc5F)c4=O)cc3)ccn2)C1` [Example 366, 1-(4-(4-(4-(2,6-difluorobenzyl)-5-oxo-4,5-dihydro-1H-1,2,4-triazol-1-yl)phenoxy)pyridin-2-yl)-3-methoxyazetidine-3-carbonitrile], the IC50 under setting [1] is less than 100 nM.

Regarding `O=c1n(-c2ccc(Oc3ccncc3)cc2)nc(Cl)n1Cc1ccccc1` [Example 403, 4-benzyl-5-chloro-2-(4-(pyridin-4-yloxy)phenyl)-2,4-dihydro-3H-1,2,4-triazol-3-one], the IC50 under setting [1] was in the range of 100 to 1000 nM.

With `Cc1c(C(N)=O)nn(C)c1Oc1ccc(-n2nc3n(c2=O)C(c2ccccc2)CC3)cc1F` (centres unmarked) [Example 23, 5-(2-fluoro-4-(3-oxo-5-phenyl-6,7-dihydro-3H-pyrrolo[2,1-c][1,2,4]triazol-2(5H)-yl)phenoxy)-1,4-dimethyl-1H-pyrazole-3-carboxamide], the IC50 under setting [3] was less than 100 nM.

As for `CCOC1CN(c2cc(Oc3ccc(-n4ncn(Cc5c(F)cccc5F)c4=O)cc3)c(C)cn2)C1` [Example 266, 4-(2,6-difluorobenzyl)-2-(4-((2-(3-ethoxyazetidin-1-yl)-5-methylpyridin-4-yl)oxy)phenyl)-2,4-dihydro-3H-1,2,4-triazol-3-one], under setting [1], the IC50 is less than 100 nM.

Take `CCOC1(C)CN(c2nccc(Oc3ccc(-n4ncn(Cc5c(F)cccc5F)c4=O)cc3)c2F)C1` [Example 490, 4-(2,6-difluorobenzyl)-2-(4-((2-(3-ethoxy-3-methylazetidin-1-yl)-3-fluoropyridin-4-yl)oxy)phenyl)-2,4-dihydro-3H-1,2,4-triazol-3-one]: the IC50 under setting [2] is less than 100 nM.

With `CC(=O)c1nc(C)c(Oc2ccc(-n3ncn(Cc4c(F)cccc4F)c3=O)cc2F)s1` [Example 449, 2-(4-((2-acetyl-4-methylthiazol-5-yl)oxy)-3-fluorophenyl)-4-(2,6-difluorobenzyl)-2,4-dihydro-3H-1,2,4-triazol-3-one], the IC50 under setting [1] is less than 100 nM.

In the case of `Cc1nc(C2COC2)sc1Oc1ccc(-n2ncn(Cc3c(F)cccc3F)c2=O)cc1` [Example 42, 4-(2,6-difluorobenzyl)-2-(4-((4-methyl-2-(oxetan-3-yl)thiazol-5-yl)oxy)phenyl)-2,4-dihydro-3H-1,2,4-triazol-3-one], the IC50 under setting [3] was less than 100 nM.

With `Cc1cnc(N2CC(C)(N)C2)cc1Oc1ccc(-n2ncn(Cc3c(F)cccc3F)c2=O)cc1F` [Example 422, 2-(4-((2-(3-amino-3-methylazetidin-1-yl)-5-methylpyridin-4-yl)oxy)-3-fluorophenyl)-4-(2,6-difluorobenzyl)-2,4-dihydro-3H-1,2,4-triazol-3-one], under setting [1], the IC50 was less than 100 nM.

Regarding `NC(=O)c1nnc(Oc2ccc(-n3nc4n(c3=O)[C@H](c3ccccc3)CC4)cc2F)s1` (single isomer, unassigned) [Example 687], the IC50 under setting [3] was less than 100 nM.

Turning to `C[C@H]1[C@H](N)CN1c1cc(Oc2ccc(-n3ncn(Cc4c(F)cccc4F)c3=O)cc2F)c(F)cn1` [Example 377, 2-(4-((2-((2S,3R)-3-amino-2-methylazetidin-1-yl)-5-fluoropyridin-4-yl)oxy)-3-fluorophenyl)-4-(2,6-difluorobenzyl)-2,4-dihydro-3H-1,2,4-triazol-3-one], the IC50 under setting [1] is less than 100 nM.

As to `Cc1nc(C(N)=O)sc1Oc1ncc(-n2ncn(Cc3c(F)cccc3F)c2=O)cc1F` [Example 643, 5-((5-(4-(2,6-difluorobenzyl)-5-oxo-4,5-dihydro-1H-1,2,4-triazol-1-yl)-3-fluoropyridin-2-yl)oxy)-4-methylthiazole-2-carboxamide], the IC50 under setting [4] was less than 100 nM.

Consider `C[C@H]1C[C@@H](O)CN1c1cc(Oc2ccc(-n3ncn(Cc4c(F)cccc4F)c3=O)cc2)ccn1` [Example 289, 4-(2,6-difluorobenzyl)-2-(4-((2-((2S,4R)-4-hydroxy-2-methylpyrrolidin-1-yl)pyridin-4-yl)oxy)phenyl)-2,4-dihydro-3H-1,2,4-triazol-3-one], for which the IC50 under setting [1] is less than 100 nM.

Take `COC(=O)c1ncsc1Nc1ccc(-n2ncn(Cc3c(F)cccc3F)c2=O)cc1` [Example 171, methyl 5-((4-(4-(2,6-difluorobenzyl)-5-oxo-4,5-dihydro-1H-1,2,4-triazol-1-yl)phenyl)amino)thiazole-4-carboxylate]: the IC50 under setting [2] fell in the range of 1000 to 10000 nM.

For the molecule `Cc1nc(N2CC3(CCOCC3)C2)sc1Oc1ccc(-n2ncn(Cc3c(F)cccc3F)c2=O)cc1` [Example 75, 4-(2,6-difluorobenzyl)-2-(4-((4-methyl-2-(7-oxa-2-azaspiro[3.5]nonan-2-yl)thiazol-5-yl)oxy)phenyl)-2,4-dihydro-3H-1,2,4-triazol-3-one], the IC50 under setting [3] is less than 100 nM.

As to `Cc1nc(C(=O)N2C[C@@H](C)O[C@@H](C)C2)sc1Oc1ccc(-n2nc3n(c2=O)[C@H](c2ccccc2)CC3)cc1F` [Example 20, (S)-2-(4-((2-((2S,6R)-2,6-dimethylmorpholine-4-carbonyl)-4-methylthiazol-5-yl)oxy)-3-fluorophenyl)-5-phenyl-2,5,6,7-tetrahydro-3H-pyrrolo[2,1-c][1,2,4]triazol-3-one], the IC50 under setting [3] was less than 100 nM.
